The subject of series [1] is six human cancer cells lines. The series is described as follows: MTS growth inhibition assay, summary over all lines. In kind it is cell-based. The note with it: all six tumor cell lines; tested up to 20 μM. The method, then: (§1) A2780 and A2780/CP (ovarian); MCF-7 (breast); HT-29 (colon); BxPC-3 (pancreas); and A549 (lung). The human tumor cell lines (purchased from ATCC, Rockville, Md.) were cultured at 37° C. (5% CO2) in RPMI medium (RPMI; Nova Tech, Grand Island, N.Y.) containing 10% fetal bovine serum (FBS, Nova Tech). Aliquots of cells were seeded into each well of 96-well microtiter plates at a final concentration of 10^4 cells/well and incubated for 24 h prior to exposure to test compounds. […] The MTS assay is a colorimetric assay based upon the ability of viable cells to convert MTS, a novel tetrazolium compound and electron-coupling reagent, to a colored formazan product that is soluble in cell culture medium. The cell concentration is then determined by measuring the absorbance of the formazan product at 490 nm. Growth inhibition, expressed as IC50, is calculated relative to vehicle-treated control cells.

A short description of series [2]: Solubility in water and in 40% (w/v) HPBCD solution by UV absorbance. The note with it: for Solubility in HPBCD Solution: 40% (w/v) HPBCD; for Solubility in HPBCD Solution / Solubility in Water: room temperature, saturated solution; for Solubility Enhancement: 40% HPBCD versus water. It is filed as physicochemical. The method, then:
To determine solubilities, test compounds were first dissolved in ethanol to prepare standard solutions with concentrations in the range 2.5–10 mg/ml, then were diluted with to 10 μg/ml with water. UV scans were obtained of the 10 μg/ml standard solutions, and the wavelength of maximum absorbance and the absorbance at the maximum absorbance wavelength were determined. For each test compound 50 μl aliquots of water and of 40% HPBCD were added to individual Eppendorf tubes containing approximately 1 mg of compound each. The tubes were heated in a 30° C. waterbath, vortexed, then centrifuged at 15,000 rpm for 5 min. This step was repeated, then the tubes were cooled to room temperature for 1 hour, then were centrifuged again. The supernatant from each tube was diluted with water into the appropriate absorbance range, and the UV absorbance was measured at the compound's absorbance maximum wavelength. The concentrations of these saturated solutions were then calculated by ratio to the 10 μg/ml ethanolic standard solutions.

In series [3] the test system is MCF-7. The series is described as follows: MTS growth inhibition assay. It is filed as cell-based, human. Particulars: MCF-7 breast, read-out: Growth inhibitory activity (50% effective concentration, IC50). As to the method: as §1, with “(5% CO2) in RPMI medium (RPMI;” left out
For series [4], the system named is A2780CP. Kind of series: MTS growth inhibition assay. In kind it is cell-based, human. Particulars: A2780CP (resistant) ovarian, read-out: Growth inhibitory activity (50% effective concentration, IC50). The method, then:
as §1, with “(5% CO2) in RPMI medium (RPMI;” left out

In series [5] the test system is A549. Kind of series: MTS growth inhibition assay. It is filed as cell-based, human. Particulars: A549 lung, read-out: Growth inhibitory activity (50% effective concentration, IC50). As to the method: as §1, with “(5% CO2) in RPMI medium (RPMI;” left out
Series [6] concerns HT-29. The series is described as follows: MTS growth inhibition assay. In kind it is cell-based, human. The note with it: HT-29 colon, read-out: Growth inhibitory activity (50% effective concentration, IC50). As to the method: as §1, with “(5% CO2) in RPMI medium (RPMI;” left out
For orientation: Formazan colour is commonly taken as a measure of viable cells.

Series [7] has as its system BxPC-3. Kind of series: MTS growth inhibition assay. In kind it is cell-based, human. Particulars: BxPC-3 pancreas, read-out: Growth inhibitory activity (50% effective concentration, IC50). The method, then:
as §1, with “(5% CO2) in RPMI medium (RPMI;” left out

Series [8] deals with A2780. The series is described as follows: MTS growth inhibition assay. Particulars: A2780 (sensitive) ovarian, read-out: Growth inhibitory activity (50% effective concentration, IC50). It is filed as cell-based, human. As to the method: as §1, with “(5% CO2) in RPMI medium (RPMI;” left out
In series [9] the test system is Human ovarian cancer cells (36M2). Kind of series: Human ovarian cancer xenograft model, β-lapachone in Lipiodol and Taxol®. In kind it is in vivo, athymic female nude mice. The note with it: i.p., 10 cycles. As to the method: Human ovarian cancer cells (36M2, originally isolated from malignant ascites) were inoculated by i.p. injection into athymic female nude mice 24 h after irradiation. In this model, metastatic foci form approximately 1 week after inoculation, and tumor nodules of the peritoneum and malignant ascites develop in 4–5 weeks. Ten days after tumor inoculation (10×10^6 cells), treatment regimens were initiated. The control group was treated with vehicle alone. In each typical treatment cycle, the β-lapachone alone group was treated with 25–50 mg/kg i.p. of β-lapachone in Lipiodol solution and the Taxol® alone group was treated at 1 mg/kg i.p. (Taxol® formulation diluted in Lipiodol), both followed 24 h later by i.p. injection of vehicle. In the combination group, nude mice were treated with β-lapachone at 25–50 mg/kg, followed 24 h later by Taxol® at 1 mg/kg. All groups were treated for 10 cycles, with a 1-day break between each cycle. […] Host toxicity was evaluated by general appearance and body weight.

Series [10] has as its system human carcinoma cells. Kind of series: Colony formation assay of β-lapachone combined with Taxol®. In kind it is cell-based. The note with it: 4 h exposure, colonies scored after 10–20 days; ovarian, breast, prostate, melanoma, lung and pancreatic cell lines, FIG. 4. The method, then:
In these studies, exponentially growing cells were seeded at 1,000 cells per well in six-well plates and allowed to attach for 48 h. β-lapachone and/or Taxol®, solubilized in DMSO, were added to the wells. Control wells were treated with equivalent volumes of DMSO. After 4 h cells were rinsed and fresh medium was added. Cultures were observed daily for 10–20 days and then were fixed and stained. Colonies of greater than 30 cells were scored as survivors.

The subject of series [11] is A2780DDP. The note with it: stated as typical value, read-out: IC50 concentration; cited from earlier work.
Setting [12] is: Exp 1, 4 h treatment + 24 h drug-free.
The mark [13] stands for this setting: Exp 2, 4 h treatment + 24 h drug-free.
[14] abbreviates: Exp 3, 4 h treatment + 24 h drug-free.

The values that follow come from patent US7074824B2, “Pharmaceutical compositions containing beta-lapachone, or derivatives or analogs thereof, and methods of using same” (Arqule, Inc., priority 2001, dated 2006).

Values after ≈ are worked out from the molar mass of the structure shown. Read-outs that look alike come from different tables or passages of the source. A value given as a limit tells only on which side of the number the result lay.

For `CC1(C)CC(O)C2=C(O1)c1ccccc1C(=O)C2=O` (stereo not drawn) [CO-503, 4-hydroxy β-lapachone], in [1], the “growth inhibitory activity, verbal summary” value is recorded as “significantly less active across all cell lines”. In [2], the “Solubility in HPBCD Solution” value worked out at 3100 µg/mL (≈ 12 mM). Also, in [2], the “Solubility Enhancement” value is listed as 8.0 −Fold. The “Solubility in Water” value in [2] is 381 µg/mL (≈ 1.48 mM). Besides, the IC50 in [3] (Exp 1) amounted to 18.8 µM; in series [3] (Exp 2) it was 19.4 µM; in series [3] (Exp 3) it was 19.3 µM; in series [3] (Mean ± SE of 3 experiments) it was 19.2 ± 0.17 µM; in [4] (Exp 1), 7.42 µM; in series [4] (Exp 2) it was 9.38 µM. For the same compound, the IC50 in [4] (Exp 3) is 14.8 µM; in [4] (Mean ± SE of 3 experiments), 10.5 ± 2.2 µM; in series [5] (Exp 1), 14.3 µM; in [5] (Exp 2), 7.63 µM; in [5] (Exp 3) it was 9.77 µM; in [5] (Mean ± SE of 3 experiments), 10.6 ± 1.98 µM. For the same compound, the IC50 in series [6] (Exp 1) was 13.2 µM; in [6] (Exp 2), 11 µM; in series [6] (Exp 3), 12.1 µM; in series [6] (Mean ± SE of 3 experiments) it was 12.1 ± 0.63 µM; in [7] (Exp 1), > 20 µM; in [7] (Exp 2), > 20 µM. For the same compound, the IC50 in [7] (Exp 3) is > 20 µM; in [7] (Mean ± SE of 3 experiments), > 20 µM; in [8] (setting [12]) it was 2.35 µM; in series [8] (setting [13]), 5.29 µM; in series [8] (setting [14]), 4.86 µM; in [8] (Mean ± SE of 3 experiments) it was 4.16 ± 0.92 µM.

Take `CC(=O)OC1CC(C)(C)OC2=C1C(=O)C(=O)c1ccccc12` (stereo not drawn) [CO-504, 4-acetoxy β-lapachone]: the “growth inhibitory activity, verbal summary” value in series [1] was “very similar to CO-501 in inhibitory activity”. Besides, the “Solubility in HPBCD Solution” value in series [2] turned out to be 2100 µg/mL (≈ 6.99 mM). Besides, in series [2], the “Solubility Enhancement” value is given as 7.4 −Fold. In series [2], the “Solubility in Water” value worked out at 284 µg/mL (≈ 0.946 mM). The IC50 in series [3] (Exp 1) was 2.59 µM; in series [3] (Exp 2), 4.78 µM; in series [3] (Exp 3), 4.28 µM; in series [3] (Mean ± SE of 3 experiments), 3.88 ± 0.67 µM; in series [4] (Exp 1), 0.678 µM; in [4] (Exp 2), 4 µM. Besides, the IC50 in [4] (Exp 3) came to 2.56 µM; in [4] (Mean ± SE of 3 experiments), 2.41 ± 0.96 µM; in [5] (Exp 1) it was 19.3 µM; in series [5] (Exp 2), 6.87 µM; in series [5] (Exp 3), 3.75 µM; in [5] (Mean ± SE of 3 experiments), 9.97 ± 4.74 µM. For the same compound, the IC50 in series [6] (Exp 1) is 14.1 µM; in series [6] (Exp 2), 6.67 µM; in [6] (Exp 3), 3.98 µM; in series [6] (Mean ± SE of 3 experiments), 8.25 ± 3.03 µM; in series [7] (Exp 1), 10.5 µM; in [7] (Exp 2), 13.5 µM. Moreover, the IC50 in series [7] (Exp 3) is 2.32 µM; in series [7] (Mean ± SE of 3 experiments), 8.74 ± 3.33 µM; in series [8] (setting [12]) it was 1.83 µM; in series [8] (setting [13]), 1.6 µM; in series [8] (setting [14]), 1.19 µM; in series [8] (Mean ± SE of 3 experiments), 1.54 ± 0.19 µM.

As to `CC(=O)O[C@H]1C(=O)[C@@]2(C)[C@H]([C@H](OC(=O)c3ccccc3)[C@]3(O)C[C@H](OC(=O)[C@H](O)[C@@H](NC(=O)c4ccccc4)c4ccccc4)C(C)=C1C3(C)C)[C@]1(OC(C)=O)CO[C@@H]1C[C@@H]2O` [Taxol®, paclitaxel, reference compound], in series [9] (assessed day 50, β-lapachone 25–50 mg/kg in Lipiodol, Taxol® 1 mg/kg), the “decrease in tumor number versus control” value was ~60%. Besides, in [9] (laparotomy at day 50), the “size of the tumor nodules and amount of ascites” value is “considerable reduction in the size of the tumor nodules and the amount of ascites”. The “inhibition of cancer cell survival (colony formation)” value in series [10] is on record as “much less effective”.

Turning to `N.N.[Cl][Pt][Cl]` [cisplatin], the IC50 in series [11] is > 100 µM.
